The results in this text go back to patent US11077090B2, “Compounds and compositions and uses thereof” (Sunovion Pharmaceuticals Inc., priority 2016, dated 2021).

For this test, the system named is compound-treated mice. In words: Neuropharmacological assay (SmartCube): behavioral activity signature and minimal effective dose. The following applies: for AD: ADHD (probability of activity signature) / AG: analgesic (probability of activity signature) / MS: mood stabilizer (probability of activity signature) / UN: uncharacterized CNS activity (probability of activity signature) / AX: anxiolytic (probability of activity signature) / CE: cognitive enhancer (probability of activity signature) / DP: anti-depressant (probability of activity signature) / PS: anti-psychotic (probability of activity signature) / SD: sedative hypnotic (probability of activity signature): i.p. 15 min before test, most efficacious dose(s). It counts as in vivo. The essentials: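 Mice dosed i.p. 15 min before test, compound in N-methyl-2-pyrrolidone/PEG/propylene glycol, 3 doses; video-captured behavior matched to reference-drug signatures, giving per-class probabilities at most efficacious dose. MED from doses typically 0.3–30 mpk, defined as lowest dose with ≥50% total activity.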

[1] abbreviates: MED = dose having 50% or more total activity.

`Cc1ccc2c(c1)C(N)COCC2.Cl` (stereo not shown) [Example 31, 8-Methyl-1,2,4,5-tetrahydrobenzo[d]oxepin-1-amine hydrochloride]: the “AD: ADHD (probability of activity signature)” value (“AD: ADHD” below) is “+ (LOQ ≤ + <5%)”, the “AG: analgesic (probability of activity signature)” value (shortened to “AG: analgesic”) is on record as “++ (5% ≤ ++ <25%)”, the “MS: mood stabilizer (probability of activity signature)” value (from here on “MS: mood stabilizer”) is recorded as “+ (LOQ ≤ + <5%)” and the “UN: uncharacterized CNS activity (probability of activity signature)” value (shortened to “UN: uncharacterized CNS activity”) is “+++ (25% ≤ +++ <50%)”. Besides, where the note is “MED = dose having 50% or more total activity, hydrochloride”, the “Potency: minimal effective dose (MED)” value is reported as “C (>10 to ≤30 mpk)”. Also, where the note is “hydrochloride”, the “AX: anxiolytic (probability of activity signature)” value (“AX: anxiolytic” for short) is reported as “++ (5% ≤ ++ <25%)”, the “CE: cognitive enhancer (probability of activity signature)” value (“CE: cognitive enhancer” for short) is reported as “+ (LOQ ≤ + <5%)”, the “DP: anti-depressant (probability of activity signature)” value (“DP: anti-depressant” for short) is “++ (5% ≤ ++ <25%)” and the “PS: anti-psychotic (probability of activity signature)” value (from here on “PS: anti-psychotic”) is recorded as “+ (LOQ ≤ + <5%)”. Further, the “SD: sedative hypnotic (probability of activity signature)” value (“SD: sedative hypnotic” for short) (hydrochloride) was “+ (LOQ ≤ + <5%)”.

In the case of `Cl.NC1COCCc2ccc3ccccc3c21` (stereo not shown) [Example 32], the “AD: ADHD” value is on record as “+ (LOQ ≤ + <5%)”, the “AG: analgesic” value is given as “++ (5% ≤ ++ <25%)”, the “AX: anxiolytic” value is on record as “++ (5% ≤ ++ <25%)” and the “CE: cognitive enhancer” value is recorded as “+ (LOQ ≤ + <5%)”. Further, the “DP: anti-depressant” value was “++ (5% ≤ ++ <25%)”, the “MS: mood stabilizer” value is recorded as “+ (LOQ ≤ + <5%)”, the “PS: anti-psychotic” value is listed as “++ (5% ≤ ++ <25%)” and the “SD: sedative hypnotic” value is “++ (5% ≤ ++ <25%)”. Besides, the “UN: uncharacterized CNS activity” value is listed as “+ (LOQ ≤ + <5%)”. Moreover, the “Potency: minimal effective dose (MED)” value under setting [1] is recorded as “C (>10 to ≤30 mpk)”.

On to `Cl.NC1CCOCc2ccccc21` (stereo not shown) [Example 33, 1,3,4,5-Tetrahydrobenzo[c]oxepin-5-amine hydrochloride], for which the “AD: ADHD” value is recorded as “+ (LOQ ≤ + <5%)”, the “AG: analgesic” value is listed as “++ (5% ≤ ++ <25%)”, the “AX: anxiolytic” value is “++ (5% ≤ ++ <25%)” and the “CE: cognitive enhancer” value was “++ (5% ≤ ++ <25%)”. The “DP: anti-depressant” value is on record as “+ (LOQ ≤ + <5%)”, the “MS: mood stabilizer” value is recorded as “+ (LOQ ≤ + <5%)”, the “PS: anti-psychotic” value is recorded as “++ (5% ≤ ++ <25%)” and the “SD: sedative hypnotic” value is given as “+ (LOQ ≤ + <5%)”. Also, the “UN: uncharacterized CNS activity” value was “+++ (25% ≤ +++ <50%)”. The minimal effective dose (Mus musculus, ip, MED = dose having 50% or more total activity, read-out: Potency: minimal effective dose (MED)) was in the range of 10 to 30 mg/kg.

With `Cc1ccc2c(c1)C(N)COCC2.Cl` (stereo not shown) [Example 34], the “AX: anxiolytic” value was “+++ (25% ≤ +++ <50%)”, the “CE: cognitive enhancer” value is listed as “++ (5% ≤ ++ <25%)”, the “DP: anti-depressant” value was “+ (LOQ ≤ + <5%)” and the “PS: anti-psychotic” value is “++ (5% ≤ ++ <25%)”. The “SD: sedative hypnotic” value was “++ (5% ≤ ++ <25%)”. Further, the “Potency: minimal effective dose (MED)” value under setting [1] was “B (>3 to 10 mpk)”.

In the case of `Cl.NC1COCCc2ccc3ccccc3c21` (stereo not shown) [Example 35], the “AD: ADHD” value was “+ (LOQ ≤ + <5%)”, the “AG: analgesic” value is “++ (5% ≤ ++ <25%)”, the “AX: anxiolytic” value is given as “+++ (25% ≤ +++ <50%)” and the “CE: cognitive enhancer” value was “++ (5% ≤ ++ <25%)”. Also, the “DP: anti-depressant” value is reported as “++ (5% ≤ ++ <25%)”, the “MS: mood stabilizer” value was “+ (LOQ ≤ + <5%)”, the “PS: anti-psychotic” value is recorded as “++ (5% ≤ ++ <25%)” and the “SD: sedative hypnotic” value is on record as “+ (LOQ ≤ + <5%)”. In addition, the “UN: uncharacterized CNS activity” value is given as “+++ (25% ≤ +++ <50%)”. The “Potency: minimal effective dose (MED)” value under setting [1] is on record as “B (>3 to 10 mpk)”.
